By DC50 is commonly meant the concentration at which degradation of the target reaches its halfway point.

Some results are limits rather than exact numbers.

The test concerns c-myc in 22RV-1 cells. The experiment in a line: Human c-myc ELISA assay. Type of test: cell-based. To be noted: Homo sapiens; for Emax: 22Rv1, 18 h, read-out: Degradation of BRD4: Maximum inhibition (%) c-Myc ELISA in 22RV1 cells; for DC50: 22Rv1, read-out: Degradation of BRD4: DC50 (uM) c-Myc ELISA in 22RV1 cells. An outline of the steps:
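c-myc levels measured by ELISA in RIPA lysates of 22RV-1 cells, calibrated with a 333-0 pg/ml standard curve. Lysates came from cells exposed for 18 h to an 8-point, 1:3 dose series starting at 300 nM or 1 μM final in 0.1% DMSO. Suppression potency given as DC50.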
(In general: In an ELISA, binding on a coated surface is turned into a signal by an enzyme label.)

In the case of `Cc1ncsc1-c1ccc([C@H](C)NC(=O)[C@@H]2C[C@@H](O)CN2C(=O)[C@@H](NC(=O)COc2ccc(O[C@H]3C[C@H](NC(=O)C[C@@H]4N=C(c5ccc(Cl)cc5)c5c(sc(C)c5C)-n5c(C)nnc54)C3)nc2)C(C)(C)C)cc1` [Example 141, (2S,4R)-1-[(2S)-3,3-dimethyl-2-[2-({6-[(1,3trans)-3-{2-[(9S)-7-(4-chlorophenyl)-4,5,13-trimethyl-3-thia-1,8,11,12-tetraazatricyclo[8.3.0.0^2,^6]trideca-2(6),4,7,10,12-pentaen-9-yl]acetamido}cyclobutoxy]pyridin-3-yl}oxy)acetamido]butanoyl]-4-hydroxy-N-[(1S)-1-[4-(4-methyl-1,3-thiazol-5-yl)phenyl]ethyl]pyrrolidine-2-carboxamide], the Emax was 98% and the DC50 is less than 0.01 µM.
Consider `Cc1ncsc1-c1ccc(CNC(=O)[C@@H]2C[C@@H](O)CN2C(=O)[C@@H](NC(=O)COCCC(=O)N2CC[C@H](NC(=O)C[C@@H]3N=C(c4ccc(Cl)cc4)c4c(sc(C)c4C)-n4c(C)nnc43)C2)C(C)(C)C)cc1` [Example 88], for which the Emax came out at 85.9% and the DC50 is 0.1 to 1 µM.
Turning to `Cc1ncsc1-c1ccc(CNC(=O)[C@@H]2C[C@@H](O)CN2C(=O)[C@@H](NC(=O)COCCOCCNC(=O)C[C@@H]2N=C(c3ccc(Cl)cc3)c3c(sc(C)c3C)-n3c(C)nnc32)C(C)(C)C)cc1` [Example 41, (2S,4R)-1-[(2S)-2-{2-[2-(2-{2-[(9S)-7-(4-chlorophenyl)-4,5,13-trimethyl-3-thia-1,8,11,12-tetraazatricyclo[8.3.0.0^2,^6]trideca-2(6),4,7,10,12-pentaen-9-yl]acetamido}ethoxy)ethoxy]acetamido}-3,3-dimethylbutanoyl]-4-hydroxy-N-{[4-(4-methyl-1,3-thiazol-5-yl)phenyl]methyl}pyrrolidine-2-carboxamide], the Emax worked out at 94% and the 50% degradation concentration (DC50) is 0.1 to 1 µM.
For `Cc1sc2c(c1C)C(c1ccc(Cl)cc1)=N[C@@H](CC(=O)N[C@H]1C[C@@H](Oc3cc(-c4cnn([C@@H](C(=O)N5C[C@H](O)C[C@H]5C(=O)N[C@@H](C)c5ccc(-n6ccnc6C)cc5)C(C)C)c4)ccn3)C1)c1nnc(C)n1-2` [Example 287], in that order: 17.3% and more than 1 µM.
For `Cc1ncsc1-c1ccc([C@H](C)NC(=O)[C@@H]2C[C@@H](O)CN2C(=O)[C@@H](NC(=O)CN2CCC(O[C@H]3C[C@H](NC(=O)c4ccc5c6ncc(-c7c(C)noc7C)cc6n([C@H](c6ccccc6)C6CCOCC6)c5c4)C3)CC2)C(C)(C)C)cc1` [Example 365, (2S,4R)-1-[(2S)-3,3-dimethyl-2-(2-{4-[(1,3-trans)-3-[3-(dimethyl-1,2-oxazol-4-yl)-5-[(S)-oxan-4-yl(phenyl)methyl]-5H-pyrido[3,2-b]indole-7-amido]cyclobutoxy]piperidin-1-yl}acetamido)butanoyl]-4-hydroxy-N-[(1S)-1-[4-(4-methyl-1,3-thiazol-5-yl)phenyl]ethyl]pyrrolidine-2-carboxamide], in that order: 100% and less than 0.01 µM.
As to `Cc1ncsc1-c1ccc(CNC(=O)[C@@H]2C[C@@H](O)CN2C(=O)[C@@H](NC(=O)COCCOCCOCCNC(=O)C[C@H]2N=C(c3ccc(Cl)cc3)c3c(sc(C)c3C)-n3c(C)nnc32)C(C)(C)C)cc1` [Example 104], the Emax was less than 5% and the DC50 was more than 1 µM.
In the case of `Cc1ncsc1-c1ccc([C@H](C)NC(=O)[C@@H]2C[C@@H](O)CN2C(=O)[C@@H](NC(=O)CCc2cc(F)cc(O[C@H]3C[C@H](NC(=O)C[C@@H]4N=C(c5ccc(Cl)cc5)c5c(sc(C)c5C)-n5c(C)nnc54)C3)c2)C(C)(C)C)cc1` [Example 173, (2S,4R)-1-[(2S)-2-(3-{3-fluoro-5-[(1,3-trans)-3-{2-[(9S)-7-(4-chlorophenyl)-4,5,13-trimethyl-3-thia-1,8,11,12-tetraazatricyclo[8.3.0.0^2,^6]trideca-2(6),4,7,10,12-pentaen-9-yl]acetamido}cyclobutoxy]phenyl}propanamido)-3,3-dimethylbutanoyl]-4-hydroxy-N-[(1S)-1-[4-(4-methyl-1,3-thiazol-5-yl)phenyl]ethyl]pyrrolidine-2-carboxamide], the Emax worked out at 98% and the DC50 is less than 0.01 µM.
The matching figures for `Cc1ncsc1-c1ccc([C@H](C)NC(=O)[C@@H]2C[C@@H](O)CN2C(=O)[C@@H](NC(=O)COc2ccc(N3CC[C@@H](NC(=O)C[C@@H]4N=C(c5ccc(Cl)cc5)c5c(sc(C)c5C)-n5c(C)nnc54)C3)nc2)C(C)(C)C)cc1` [Example 242]: 98% and less than 0.01 µM.
For `Cc1ncsc1-c1ccc([C@H](C)NC(=O)[C@@H]2C[C@@H](O)CN2C(=O)[C@@H](NC(=O)/C=C/c2cccc(O[C@@H](C)CNC(=O)C[C@@H]3N=C(c4ccc(Cl)cc4)c4c(sc(C)c4C)-n4c(C)nnc43)c2)C(C)(C)C)cc1` [Example 158], in that order: 96.5% and less than 0.01 µM.
For `Cc1ncsc1-c1ccc([C@H](C)NC(=O)[C@@H]2C[C@@H](O)CN2C(=O)[C@@H](NC(=O)/C=C/c2cc(F)cc(O[C@@H](C)CNC(=O)C[C@@H]3N=C(c4ccc(Cl)cc4)c4c(sc(C)c4C)-n4c(C)nnc43)c2)C(C)(C)C)cc1` [Example 201], in that order: 94.1% and less than 0.01 µM.
As for `Cc1ncsc1-c1ccc([C@H](C)NC(=O)[C@@H]2C[C@@H](O)CN2C(=O)[C@@H](NC(=O)COc2ccc(N3CC(NC(=O)C[C@@H]4N=C(c5ccc(Cl)cc5)c5c(sc(C)c5C)-n5c(C)nnc54)C3)nc2)C(C)(C)C)cc1` [Example 251, (2S,4R)-1-[(2S)-2-(2-{[6-(3-{2-[(9S)-7-(4-chlorophenyl)-4,5,13-trimethyl-3-thia-1,8,11,12-tetraazatricyclo[8.3.0.0^2,^6]trideca-2(6),4,7,10,12-pentaen-9-yl]acetamido}azetidin-1-yl)pyridin-3-yl]oxy}acetamido)-3,3-dimethylbutanoyl]-4-hydroxy-N-[(1S)-1-[4-(4-methyl-1,3-thiazol-5-yl)phenyl]ethyl]pyrrolidine-2-carboxamide], the Emax came to 92.3% and the DC50 was less than 0.01 µM.
For `Cc1ncsc1-c1ccc(CNC(=O)[C@@H]2C[C@@H](O)CN2C(=O)[C@@H](NC(=O)COCCCOCCCOc2ccc3c(c2)c2c(C(N)=O)cc(-c4c(C)noc4C)cc2n3Cc2ccccc2)C(C)(C)C)cc1` [Example 133, 9-benzyl-2-(dimethyl-1,2-oxazol-4-yl)-6-{3-[3-({[(2S)-1-[(2S,4R)-4-hydroxy-2-({[4-(4-methyl-1,3-thiazol-5-yl)phenyl]methyl}carbamoyl)pyrrolidin-1-yl]-3,3-dimethyl-1-oxobutan-2-yl]carbamoyl}methoxy)propoxy]propoxy}-9H-carbazole-4-carboxamide], in that order: 98% and 0.01 to 0.1 µM.
The matching figures for `Cc1ncsc1-c1ccc(CNC(=O)[C@@H]2C[C@@H](O)CN2C(=O)[C@@H](NC(=O)COCCOc2cccc(NC(=O)C[C@@H]3N=C(c4ccc(Cl)cc4)c4c(sc(C)c4C)-n4c(C)nnc43)c2)C(C)(C)C)cc1` [Example 81]: 99% and 0.01 to 0.1 µM.
Turning to `Cc1ncsc1-c1ccc([C@H](C)NC(=O)[C@@H]2C[C@@H](O)CN2C(=O)[C@@H](C(C)C)n2cc(-c3ccc(O[C@H]4C[C@H](NC(=O)C[C@@H]5N=C(c6ccc(Cl)cc6)c6c(sc(C)c6C)-n6c(C)nnc65)C4)nc3)cn2)cc1` [Example 268], the Emax came out at 98% and the DC50 fell in the range of 0.01 to 0.1 µM.
The matching figures for `Cc1ncsc1-c1ccc(CNC(=O)[C@@H]2C[C@@H](O)CN2C(=O)[C@@H](NC(=O)COCCCOCCCNC(=O)C[C@@H]2N=C(c3ccc(Cl)cc3)c3c(sc(C)c3C)-n3c(C)nnc32)C(C)(C)C)cc1` [Example 46]: 100% and 0.01 to 0.1 µM.
As to `Cc1ncsc1-c1ccc([C@H](C)NC(=O)[C@@H]2C[C@@H](O)CN2C(=O)[C@H](C(C)C)n2cc(-c3cc(F)cc(O[C@H]4C[C@H](NC(=O)C[C@@H]5N=C(c6ccc(Cl)cc6)c6c(sc(C)c6C)-n6c(C)nnc65)C4)c3)cn2)cc1` [Example 254], the Emax stood at 95.4% and the DC50 was less than 0.01 µM.
Regarding `Cc1ncsc1-c1ccc(CNC(=O)[C@@H]2C[C@@H](O)CN2C(=O)[C@@H](NC(=O)COCCCOCCCCOCCCOc2ccc(NC(=O)C[C@@H]3N=C(c4ccc(Cl)cc4)c4c(sc(C)c4C)-n4c(C)nnc43)cc2)C(C)(C)C)cc1` [Example 13], the Emax is 100% and the half-maximal degradation concentration (DC50) fell in the range of 0.01 to 0.1 µM.
For `Cc1ncsc1-c1ccc([C@H](C)NC(=O)[C@H]2C[C@H](O)CN2C(=O)[C@@H](NC(=O)c2cc3cc(O[C@H]4C[C@@H](NC(=O)C[C@@H]5N=C(c6ccc(Cl)cc6)c6c(sc(C)c6C)-n6c(C)nnc65)C4)ccc3o2)C(C)(C)C)cc1` [Example 332], in that order: 61% and 0.1 to 1 µM.
In the case of `Cc1ncsc1-c1ccc([C@H](C)NC(=O)[C@@H]2C[C@@H](O)CN2C(=O)[C@@H](NC(=O)COCCCN2CCN(C(=O)C[C@@H]3N=C(c4ccc(Cl)cc4)c4c(sc(C)c4C)-n4c(C)nnc43)CC2)C(C)(C)C)cc1` [Example 313], the Emax is 87.5% and the DC50 fell in the range of 0.01 to 0.1 µM.
For `Cc1ncsc1-c1ccc([C@H](C)NC(=O)[C@@H]2C[C@@H](O)CN2C(=O)[C@@H](NC(=O)CN2CCC(O[C@H]3C[C@H](NC(=O)C[C@@H]4N=C(c5ccc(Cl)cc5)c5c(sc(C)c5C)-n5c(C)nnc54)C3)CC2)C(C)(C)C)cc1` [Example 306, (2S,4R)-1-[(2S)-3,3-dimethyl-2-(2-{4-[(1,3-trans)-3-{2-[(9S)-7-(4-chlorophenyl)-4,5,13-trimethyl-3-thia-1,8,11,12-tetraazatricyclo[8.3.0.0^2,^6]trideca-2(6),4,7,10,12-pentaen-9-yl]acetamido}cyclobutoxy]piperidin-1-yl}acetamido)butanoyl]-4-hydroxy-N-[(1S)-1-[4-(4-methyl-1,3-thiazol-5-yl)phenyl]ethyl]pyrrolidine-2-carboxamide], in that order: 100% and less than 0.01 µM.

The record behind these values is patent publication US11554171B2, “Compounds and methods for the targeted degradation of bromodomain-containing proteins” (Arvinas Operations, Inc., priority 2015, dated 2023).
